Read-outs that look alike come from different tables or passages of the source. Ends that are not written are not given here.
Key:
Sprague-Dawley rats [1] = assay: In vivo rat remote conditioning (abdominal incision before LAD ischemia-reperfusion)
[2] = test system: primary neonatal cardiomyocytes (PNCM); assay: Mitochondrial membrane potential by live cell imaging (TMRE/CMXRos), normoxia; type: cell-based, rat
Excerpt: • Primary Neonatal Cardiomyocyte Isolation: Rat pups 1-3 days of age were used for primary neonatal cardiomyocyte isolation as previously described (Disatnik et al., Journal of the American Heart Association, 2013. 2:e000461). • Peptide Synthesis: Peptides were synthesized using microwave chemistry on a Liberty Microwave Peptide Synthesizer (CEM Corporation) (Gross et al., Basic Research in Cardiology, 2013. 108:381). Peptides were synthesized as one polypeptide with TAT47-57 carrier in the following order: N-terminus-TAT47-57-spacer (Gly-Gly)-cargo-C-terminus. • RT PCR: Total RNA was isolated from PNCM on day 4 in culture and H9C2 cells at passages 18, 23, 24 (Ambion RNAqueous kit). To reduce DNA contamination in the preparations, the isolated total RNA was subject to precipitation with lithium chloride and DNase digestion (Ambion DNase free). cDNA was generated from mRNA using Takara Primescript cDNA synthesis kit with oligo dT primers. Previously described primers, forward: […] (SEQ ID NO:112) and reverse: […] […] The amplified PCR product was subcloned into the pCR TOPO vector (Invitrogen) and sequenced. • Quantitative PCR: cDNA from mRNA was generated from H9C2, PNCM, and heart tissues (RA, LA, RV, LV) as described above. […]

Sprague-Dawley rats [3] = test system: Sprague-Dawley rats
TRPV1 = target: T1, TRPV1 (Homo sapiens, UniProt Q8NER1); settings: in vivo; cited from earlier work
T1 construct: host or cells: human trial subjects (endogenous)
T1 sequence (Q8NER1 whole entry): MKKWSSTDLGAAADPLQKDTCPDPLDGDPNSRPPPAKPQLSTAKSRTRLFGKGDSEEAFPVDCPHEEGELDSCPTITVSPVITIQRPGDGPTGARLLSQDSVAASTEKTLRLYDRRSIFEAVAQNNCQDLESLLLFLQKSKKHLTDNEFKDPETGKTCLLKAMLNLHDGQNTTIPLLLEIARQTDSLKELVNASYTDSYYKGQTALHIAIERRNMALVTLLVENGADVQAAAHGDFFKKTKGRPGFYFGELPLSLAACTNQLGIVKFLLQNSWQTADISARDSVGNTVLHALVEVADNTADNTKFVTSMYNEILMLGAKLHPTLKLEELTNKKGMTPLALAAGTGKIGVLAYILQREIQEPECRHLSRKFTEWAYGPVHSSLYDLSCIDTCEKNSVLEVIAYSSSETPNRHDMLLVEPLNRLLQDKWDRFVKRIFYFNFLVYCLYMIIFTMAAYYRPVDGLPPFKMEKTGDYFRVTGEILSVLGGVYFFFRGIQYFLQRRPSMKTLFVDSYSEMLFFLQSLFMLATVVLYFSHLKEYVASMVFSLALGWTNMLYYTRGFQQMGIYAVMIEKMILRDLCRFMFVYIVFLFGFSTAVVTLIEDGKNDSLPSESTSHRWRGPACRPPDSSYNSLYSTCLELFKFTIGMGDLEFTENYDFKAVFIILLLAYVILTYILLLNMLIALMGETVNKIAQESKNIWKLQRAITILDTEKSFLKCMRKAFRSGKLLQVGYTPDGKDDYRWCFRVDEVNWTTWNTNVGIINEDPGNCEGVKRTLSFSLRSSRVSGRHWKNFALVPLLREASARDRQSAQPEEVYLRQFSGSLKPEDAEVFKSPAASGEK

Sprague-Dawley rats [4] = type: in vivo, rat; settings: for HR / MAP / RPP: CAP 0.3 mg/kg, CsA 2.5 mg/kg, V1-cal 1 mg/kg, given 5 minutes prior to reperfusion
[5] = test system: Sprague-Dawley TRPV1 knockout rats; assay: In vivo LAD ischemia-reperfusion injury model in TRPV1 knockout rats; design: species or system rat
isolated rat hearts = assay: Isolated heart model of ischemia-reperfusion injury; settings: for heart rate when infused: 10 minutes prior to ischemia
[6] = Peptide stability, trypsin digestion analyzed by RP-HPLC; type: in vitro ADME; settings: 20 minutes after exposure to trypsin; read-out: degraded
Protocol: FIG. 12: Determination of peptide stability. A. At baseline a single peak at 5 minutes was noted when V1-cal was analyzed by RP-HPLC (arrow in green). B. 10 minutes after trypsin digestion, V1-cal is still detected (arrow in green), yet is 75% degraded with the with multiple peaks detected as degradation products of V1-cal (black arrows). C. 20 minutes after exposure to trypsin, V1-cal is 100% degraded (with no peak at 5 minutes and multiple other peaks shown with black arrows detected).

H9C2 cells = assay: H9C2 cell model of ischemia-reoxygenation, lactate dehydrogenase release; type: cell-based
[7] = 15 min Ischemia, capsaicin 0.1 mg/kg
[8] = 15 min Ischemia, capsaicin 0.3 mg/kg
[9] = 15 min Ischemia, capsaicin 1.0 mg/kg
[10] = 15 min Ischemia, capsaicin 3.0 mg/kg
[11] = 2 hrs Reperfusion, capsaicin 0.1 mg/kg
[12] = 2 hrs Reperfusion, capsaicin 0.3 mg/kg
[13] = 2 hrs Reperfusion, capsaicin 1.0 mg/kg
[14] = 2 hrs Reperfusion, capsaicin 3.0 mg/kg

Oc1cc2c(cc1O)CN(C(=S)NCCc1ccc(Cl)cc1)CCC2 [capsazepine]
effect on incision-induced infarct size reduction (Sprague-Dawley rats [1]; 3 mg/kg, internal jugular vein, 10 minutes before the incision): blocked
HR (heart rate) (Sprague-Dawley rats [1]; 15 min Ischemia): 396 ± 10 beats/min
MAP (mean arterial pressure) (Sprague-Dawley rats [1]; 15 min Ischemia): 115 ± 9 mmHg
RPP (rate pressure product) (Sprague-Dawley rats [1]; 15 min Ischemia): 52 ± 5 mmHg/1000
HR (heart rate) (Sprague-Dawley rats [1]; 2 hrs Reperfusion): 374 ± 5 beats/min
MAP (mean arterial pressure) (Sprague-Dawley rats [1]; 2 hrs Reperfusion): 82 ± 3 mmHg
RPP (rate pressure product) (Sprague-Dawley rats [1]; 2 hrs Reperfusion): 39 ± 1 mmHg/1000
HR (heart rate) (Sprague-Dawley rats [1]; Baseline): 384 ± 5 beats/min
MAP (mean arterial pressure) (Sprague-Dawley rats [1]; Baseline): 121 ± 4 mmHg
RPP (rate pressure product) (Sprague-Dawley rats [1]; Baseline): 55 ± 2 mmHg/1000
infarct size, agent alone, compared to control (Sprague-Dawley rats [1]; capsazepine alone): no differences were noted for infarct size compared to the control group
changes in mitochondrial membrane potential induced by capsaicin ([2]; treated 10 minutes prior to capsaicin): blocked
infarct size sparing effect of capsaicin (Sprague-Dawley rats [3]; CPZ 3 mg/kg, CsA 2.5 mg/kg, 40 minutes prior to ischemia): blocked the infarct size sparing effect of capsaicin
change in heart rate afforded by capsaicin (Sprague-Dawley rats [3]; capsaicin 0.3 mg/kg, CPZ 3 mg/kg, CsA 2.5 mg/kg): reduced the change in heart rate

CC(=O)Nc1nc2c(Oc3cc(-c4ccc(C(F)(F)F)cc4)ncn3)cccc2s1 [AMG517]
adverse effect in human clinical trials (TRPV1): caused hyperthermia

YGRKKRRQRRRGGRAITILDTEKS [V1-cal]
HR (Sprague-Dawley rats [4]; 15 min Ischemia): 432 ± 10 beats/min
MAP (Sprague-Dawley rats [4]; 15 min Ischemia): 110 ± 5 mmHg
RPP (Sprague-Dawley rats [4]; 15 min Ischemia): 47 ± 3 mmHg/1000
HR (Sprague-Dawley rats [4]; 2 hrs Reperfusion): 389 ± 15 beats/min
MAP (Sprague-Dawley rats [4]; 2 hrs Reperfusion): 68 ± 5 mmHg
RPP (Sprague-Dawley rats [4]; 2 hrs Reperfusion): 26 ± 3 mmHg/1000
HR (Sprague-Dawley rats [4]; Baseline): 428 ± 6 beats/min
MAP (Sprague-Dawley rats [4]; Baseline): 115 ± 5 mmHg
RPP (Sprague-Dawley rats [4]; Baseline): 49 ± 3 mmHg/1000
HR ([5]; 15 min Ischemia): 446 ± 13 beats/min
MAP ([5]; 15 min Ischemia): 114 ± 7 mmHg
RPP ([5]; 15 min Ischemia): 56 ± 4 mmHg/1000
TIME ([5]; 15 min Ischemia): 37.1 ± 0.1
MAP ([5]; 2 hrs Reperfusion): 84 ± 8 mmHg
RPP ([5]; 2 hrs Reperfusion): 40 ± 4 mmHg/1000
TIME ([5]; 2 hrs Reperfusion): 37 ± 0.1
HR ([5]; Baseline): 439 ± 12 beats/min
MAP ([5]; Baseline): 123 ± 6 mmHg
RPP ([5]; Baseline): 61 ± 4 mmHg/1000
TIME ([5]; Baseline): 36.9 ± 0.2
heart rate when infused (isolated rat hearts): neither peptide had any effects on heart rate
metabolised at 20 min [6]: 100%

YGRKKRRQRRRGGAIIITILDTEIS [A5-cal]
heart rate when infused (isolated rat hearts): neither peptide had any effects on heart rate

COc1cc(CNC(=O)CCCC/C=C/C(C)C)ccc1O [capsaicin]
HR (Sprague-Dawley rats [4]; 15 min Ischemia): 377 ± 11 beats/min
MAP (Sprague-Dawley rats [4]; 15 min Ischemia): 118 ± 10 mmHg
RPP (Sprague-Dawley rats [4]; 15 min Ischemia): 51 ± 5 mmHg/1000
HR (Sprague-Dawley rats [4]; 2 hrs Reperfusion): 363 ± 9 beats/min
MAP (Sprague-Dawley rats [4]; 2 hrs Reperfusion): 87 ± 7 mmHg
RPP (Sprague-Dawley rats [4]; 2 hrs Reperfusion): 39 ± 3 mmHg/1000
HR (Sprague-Dawley rats [4]; Baseline): 370 ± 6 beats/min
MAP (Sprague-Dawley rats [4]; Baseline): 134 ± 3 mmHg
RPP (Sprague-Dawley rats [4]; Baseline): 58 ± 2 mmHg/1000
myocardial infarct size (Sprague-Dawley rats [4]; given just prior to reperfusion, n=6/group, control 61±2%): 45±1%
infarct size reduction when compared to control (Sprague-Dawley rats [4]; single intravenous bolus 5 minutes prior to reperfusion): 27%
mitochondrial membrane potential (TMRE) ([2]; 0.1-10 μM, over 30 minutes): dose-dependently decreased mitochondrial membrane potential
LDH release (H9C2 cells; 0.1 μM): reduced LDH release
reduction of LDH release (H9C2 cells; 1 and 10 μM): did not occur
heart rate, isolated un-paced rat hearts (isolated rat hearts; capsaicin 0.1 μM versus vehicle (DMSO)): increased heart rate during the first 15 minutes of infusion
infarct size (Sprague-Dawley rats [3]; 0.1 mg/kg and 1.0 mg/kg): partial effects
infarct size (Sprague-Dawley rats [3]; 0.3 mg/kg): maximally decreased infarct size
myocardial infarct size (Sprague-Dawley rats [3]; 3.0 mg/kg): failed to reduce myocardial infarct size
myocardial infarct size (Sprague-Dawley rats [3]; 0.1-1.0 mg/kg): reduced myocardial infarct size
heart rate after intravenous administration (Sprague-Dawley rats [3]; 0.1-3.0 mg/kg intravenously): dose-dependently increased heart rate
HR (Sprague-Dawley rats [3]; [7]): 373 ± 10 beats/min
MAP (Sprague-Dawley rats [3]; [7]): 110 ± 7 mmHg
RPP (Sprague-Dawley rats [3]; [7]): 47 ± 4 mmHg/1000
HR (Sprague-Dawley rats [3]; [8]): 360 ± 21 beats/min
MAP (Sprague-Dawley rats [3]; [8]): 89 ± 14 mmHg
RPP (Sprague-Dawley rats [3]; [8]): 40 ± 7 mmHg/1000
HR (Sprague-Dawley rats [3]; [9]): 385 ± 15 beats/min
MAP (Sprague-Dawley rats [3]; [9]): 104 ± 10 mmHg
RPP (Sprague-Dawley rats [3]; [9]): 46 ± 5 mmHg/1000
HR (Sprague-Dawley rats [3]; [10]): 420 ± 9 beats/min
MAP (Sprague-Dawley rats [3]; [10]): 113 ± 5 mmHg
RPP (Sprague-Dawley rats [3]; [10]): 53 ± 3 mmHg/1000
HR (Sprague-Dawley rats [3]; [11]): 362 ± 6 beats/min
MAP (Sprague-Dawley rats [3]; [11]): 86 ± 5 mmHg
RPP (Sprague-Dawley rats [3]; [11]): 39 ± 2 mmHg/1000
HR (Sprague-Dawley rats [3]; [12]): 368 ± 6 beats/min
MAP (Sprague-Dawley rats [3]; [12]): 85 ± 3 mmHg
RPP (Sprague-Dawley rats [3]; [12]): 38 ± 2 mmHg/1000
HR (Sprague-Dawley rats [3]; [13]): 367 ± 3 beats/min
MAP (Sprague-Dawley rats [3]; [13]): 79 ± 3 mmHg
RPP (Sprague-Dawley rats [3]; [13]): 36 ± 2 mmHg/1000
HR (Sprague-Dawley rats [3]; [14]): 370 ± 4 beats/min
MAP (Sprague-Dawley rats [3]; [14]): 72 ± 4 mmHg
RPP (Sprague-Dawley rats [3]; [14]): 35 ± 2 mmHg/1000
HR (Sprague-Dawley rats [3]; Baseline, capsaicin 0.1 mg/kg): 377 ± 13 beats/min
MAP (Sprague-Dawley rats [3]; Baseline, capsaicin 0.1 mg/kg): 128 ± 4 mmHg
RPP (Sprague-Dawley rats [3]; Baseline, capsaicin 0.1 mg/kg): 60 ± 5 mmHg/1000
HR (Sprague-Dawley rats [3]; Baseline, capsaicin 0.3 mg/kg): 370 ± 11 beats/min
MAP (Sprague-Dawley rats [3]; Baseline, capsaicin 0.3 mg/kg): 137 ± 7 mmHg
RPP (Sprague-Dawley rats [3]; Baseline, capsaicin 0.3 mg/kg): 60 ± 5 mmHg/1000
HR (Sprague-Dawley rats [3]; Baseline, capsaicin 1.0 mg/kg): 353 ± 11 beats/min
MAP (Sprague-Dawley rats [3]; Baseline, capsaicin 1.0 mg/kg): 131 ± 6 mmHg
RPP (Sprague-Dawley rats [3]; Baseline, capsaicin 1.0 mg/kg): 55 ± 3 mmHg/1000
HR (Sprague-Dawley rats [3]; Baseline, capsaicin 3.0 mg/kg): 357 ± 8 beats/min
MAP (Sprague-Dawley rats [3]; Baseline, capsaicin 3.0 mg/kg): 127 ± 4 mmHg
RPP (Sprague-Dawley rats [3]; Baseline, capsaicin 3.0 mg/kg): 53 ± 2 mmHg/1000
